Legend:
MPI cells = assay: Cytokine response of MPI cells to microbial stimuli (ELISA, bioassay); assay type: cell-based, mouse
Description: Single cell suspensions (0.5x10^6 cells/ml) from fetal livers of 15 to 19 day-old mouse embryos or of livers of new-born mice (up to 2 weeks of age) were washed in PBS and resuspended in RPMI 1640 containing 10% fetal calf serum and supplemented with 20 ng/ml recombinant murine GM-CSF (also referred to herein as MPI medium). Rapidly proliferating cells were subcultured by splitting them 1:5 in MPI medium using cells detached with PBS/1.5 mM EDTA and floating cells in the culture. Cells proliferated more slowly after 2 weeks of culture. GM-CSF was replenished weekly and subcultures in MPI medium were made when total (attached and floating) cell density reached approximately 0.5 x 10^6 cell/ml. […]
(§1) Sarcin assay, measuring Ad endosomal escape was done as described previously (Schreiner et al., 2012). […] Non-endotoxin ligands were substantially LPS-free (less than or equal to 1 pg LPS/1011 viral particles) as determined by the Limulus amebocyte lysate test from Pyroquant. […]
Detection of secreted cytokines, surface antigens, intracellular proteins and enzymatic activity The following cytokines were detected with ELISA using commercially available antibody pairs or kits: mouse IL-6 (BD Bioscience), IL-1α (eBioscience), IL-1β (eBioscience) and IL-10 (eBioscience), human IL-6 (R&D Systems), IL-1α (eBioLegend) and IL-10 (BD Bioscience). […]

BMMs = assay: Cytokine response of BMMs to microbial stimuli (ELISA, bioassay); assay type: cell-based, mouse
Source text: BMMs (Bone Marrow derived Macrophages) and GM-CSF induced BMDCs were generated as described (Fejer et al., 2008). The purity of BMMs was higher than 98%, of BMDCs approximately 80%. SP37A3 cells were originally grown in RPMI in the presence of GM-CSF and M-CSF as described (Bros et al., 2007). Cells growing in media with […] GM-CSF but without M-CSF were selected from the original cells and used further in the studies shown here.
as §1
Detection of secreted cytokines, surface antigens, intracellular proteins and enzymatic activity The following cytokines were detected with ELISA using commercially available antibody pairs or kits: mouse IL-6 (BD Bioscience), IL-1α (eBioscience), IL-1β (eBioscience) and IL-10 (eBioscience), human IL-6 (R&D Systems), IL-1α (eBioLegend) and IL-10 (BD Bioscience). IFN-αβ and TNF-α activities were measured with bioassays as described (Fejer et al., 2005). […] Intracellular proteins were detected on immunoblots with antibodies from Pharmingen BD (IL-1α and IL-1β) and Cell Signalling (phosphorylated isophorm of p38 MAPK). […]

For FSL-1, the IFN-αβ production (MPI cells; MPI cells) was “neither of the cell types produced IFN-αβ”, the “IL-6 and TNF-α levels” value (MPI cells; MPI cells in comparison to BMMs) was “higher levels” and the IFN-αβ production (BMMs) was “neither of the cell types produced IFN-αβ”.
